Measurements published in ChEMBL document CHEMBL1201862, “PubChem BioAssay data set” (2004).
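Assay format: 96-well plates, 48-hour exposure. Abbreviation: GI50, concentration required for 50% inhibition of growth.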 Active and inactive are the calls of the source. Rule as the data show it: active = GI50 up to about 1.1 µM and inactive = higher.

Legend:
Assay in all cases: NCI anticancer screen, dose series, 48 h
NCI-H23 = test system: NCI-H23
UACC-62 = test system: UACC-62
SNB-19 = test system: SNB-19
IGROV-1 = test system: IGROV-1
HCC 2998 = test system: HCC 2998
ACHN = test system: ACHN
UACC-257 = test system: UACC-257
MCF7 = test system: MCF7
SR = test system: SR
EKVX = test system: EKVX
HCT-15 = test system: HCT-15
MDA-N = test system: MDA-N
OVCAR-8 = test system: OVCAR-8
PC-3 = test system: PC-3
HCT-116 = test system: HCT-116
DU-145 = test system: DU-145
HOP-92 = test system: HOP-92
TK-10 = test system: TK-10
HL-60 = test system: HL-60
786-0 = test system: 786-0
SK-MEL-5 = test system: SK-MEL-5
KM12 = test system: KM12
SW-620 = test system: SW-620
OVCAR-3 = test system: OVCAR-3
SF-295 = test system: SF-295
OVCAR-5 = test system: OVCAR-5
MDA-MB-231 = test system: MDA-MB-231
SF-268 = test system: SF-268
UO-31 = test system: UO-31
A498 = test system: A498
MOLT-4 = test system: MOLT-4
T47D = test system: T47D
M14 = test system: M14
A549 = test system: A549
LOX IMVI = test system: LOX IMVI
CAKI-1 = test system: CAKI-1
COLO 205 = test system: COLO 205
U-251 = test system: U-251
MDA-MB-435 = test system: MDA-MB-435
SN12C = test system: SN12C
K562 = test system: K562
SK-MEL-28 = test system: SK-MEL-28
NCI-H460 = test system: NCI-H460
NCI-H226 = test system: NCI-H226
SNB-75 = test system: SNB-75
SK-OV-3 = test system: SK-OV-3
NCI/ADR-RES = test system: NCI/ADR-RES
RPMI-8226 = test system: RPMI-8226
OVCAR-4 = test system: OVCAR-4
SK-MEL-2 = test system: SK-MEL-2
HOP-62 = test system: HOP-62
CCRF-CEM = test system: CCRF-CEM
HT-29 = test system: HT-29
Malme-3M = test system: Malme-3M
RXF 393 = test system: RXF 393

With `COC1/C=C/C(C)C(C(C)C(OC)C(C)CCC(=O)C(C)C(CC(=O)O)OC)OC(=O)/C=C/C=C(\C)CC(OC)C(OC)C2=CC(=O)O[C@@H](C(C)C(OC)CC(OC)/C=C/C(C)C(O)C1)[C@H]2O` (stereo partly drawn) the GI50 (NCI-H23) was 0.164 µM (active), the GI50 (UACC-62) was 0.0479 µM (active) and the GI50 (SNB-19) was 0.217 µM (active). The GI50 (IGROV-1) was 0.0129 µM (active), the GI50 (HCC 2998) was 0.0631 µM (active) and the GI50 (ACHN) was 0.0473 µM (active). The GI50 (UACC-257) was 0.0993 µM (active), the GI50 (MCF7) was 0.0715 µM (active) and the GI50 (SR) was 0.0622 µM (active). The GI50 (EKVX) was 0.0474 µM (active), the GI50 (HCT-15) was 0.0611 µM and the GI50 (MDA-N) was 0.0785 µM (active). For the same molecule, the GI50 (OVCAR-8) was 0.0337 µM (active), the GI50 (PC-3) was 0.0382 µM (active) and the GI50 (HCT-116) was 0.00714 µM (active). The GI50 (DU-145) was 0.053 µM (active), the GI50 (HOP-92) was 0.0339 µM (active) and the GI50 (TK-10) was 0.0703 µM (active). The GI50 (HL-60) was 0.0237 µM (active), the GI50 (786-0) was 0.0223 µM (active) and the GI50 (SK-MEL-5) was 0.0536 µM (active). For the same molecule, the GI50 (KM12) was 0.0512 µM (active), the GI50 (SW-620) was 0.0242 µM (active) and the GI50 (OVCAR-3) was 0.188 µM (active). For the same molecule, the GI50 (SF-295) was 0.0968 µM (active), the GI50 (OVCAR-5) was 0.265 µM (active) and the GI50 (MDA-MB-231) was 0.083 µM (active). For the same molecule, the GI50 (SF-268) was 0.046 µM (active), the GI50 (UO-31) was 0.0382 µM (active) and the GI50 (A498) was 0.0815 µM (active). For the same molecule, the GI50 (MOLT-4) was 0.106 µM (active), the GI50 (T47D) was 0.135 µM (active) and the GI50 (M14) was 0.0286 µM (active). The GI50 (A549) was 0.0419 µM (active), the GI50 (LOX IMVI) was 0.0188 µM (active) and the GI50 (CAKI-1) was 0.033 µM (active). The GI50 (COLO 205) was 0.0399 µM (active), the GI50 (U-251) was 0.0416 µM (active) and the GI50 (MDA-MB-435) was 0.0681 µM (active). For the same molecule, the GI50 (SN12C) was 0.406 µM (active), the GI50 (K562) was 0.0564 µM (active) and the GI50 (SK-MEL-28) was 0.0212 µM (active). For the same molecule, the GI50 (NCI-H460) was 0.0311 µM (active), the GI50 (NCI-H226) was 0.0336 µM (active) and the GI50 (SNB-75) was 0.0311 µM (active). For the same molecule, the GI50 (SK-OV-3) was 0.0879 µM (active), the GI50 (NCI/ADR-RES) was 0.149 µM (active) and the GI50 (RPMI-8226) was 0.0959 µM (active). For the same molecule, the GI50 (OVCAR-4) was 0.153 µM (active), the GI50 (SK-MEL-2) was 0.198 µM (active) and the GI50 (HOP-62) was 0.121 µM (active). The GI50 (CCRF-CEM) was 0.0484 µM (active) and the GI50 (HT-29) was 0.026 µM (active).

In the case of `COc1ccc(/C=C\c2cc(OC)c(OC)c(OC)c2)cc1OC(=O)C(N)CCC(=O)O` (stereo not drawn), the GI50 (MCF7) was 0.00187 µM (active), the GI50 (786-0) was 0.000792 µM (active) and the GI50 (A549) was 0.000944 µM (active). The GI50 (NCI-H226) was 0.00123 µM (active) and the GI50 (HT-29) was 2.34 µM (inactive).

For `C=CCNc1nc2c(N)ncnc2s1`, the GI50 (NCI-H23) was > 10 µM (inactive), the GI50 (UACC-62) was > 10 µM (inactive) and the GI50 (IGROV-1) was > 10 µM (inactive). The GI50 (ACHN) was > 10 µM (inactive), the GI50 (MCF7) was > 10 µM (inactive) and the GI50 (SR) was > 10 µM (inactive). The GI50 (Malme-3M) was > 10 µM (inactive), the GI50 (HOP-92) was > 10 µM (inactive) and the GI50 (HL-60) was > 10 µM (inactive). The GI50 (786-0) was > 10 µM (inactive), the GI50 (SK-MEL-5) was > 10 µM (inactive) and the GI50 (RXF 393) was > 10 µM (inactive). For the same molecule, the GI50 (SW-620) was > 10 µM (inactive), the GI50 (OVCAR-5) was > 10 µM (inactive) and the GI50 (SF-268) was > 10 µM (inactive). For the same molecule, the GI50 (MOLT-4) was > 10 µM (inactive), the GI50 (T47D) was > 10 µM (inactive) and the GI50 (M14) was > 10 µM (inactive). The GI50 (A549) was > 10 µM (inactive), the GI50 (CAKI-1) was > 10 µM (inactive) and the GI50 (COLO 205) was > 10 µM (inactive). For the same molecule, the GI50 (U-251) was > 10 µM (inactive), the GI50 (MDA-MB-435) was > 10 µM (inactive) and the GI50 (K562) was > 10 µM (inactive). For the same molecule, the GI50 (SK-MEL-28) was > 10 µM (inactive), the GI50 (NCI-H460) was > 10 µM (inactive) and the GI50 (SNB-75) was > 10 µM (inactive). The GI50 (SK-OV-3) was > 10 µM (inactive), the GI50 (NCI/ADR-RES) was > 10 µM (inactive) and the GI50 (RPMI-8226) was > 10 µM (inactive). The GI50 (OVCAR-4) was > 10 µM (inactive), the GI50 (SK-MEL-2) was > 10 µM (inactive) and the GI50 (HOP-62) was > 10 µM (inactive). The GI50 (CCRF-CEM) was > 10 µM (inactive).

For `COc1cc(/C=C/c2ccc(S(N)(=O)=O)cc2)cc(OC)c1`, the GI50 (SNB-19) was 39.1 µM (inactive), the GI50 (HCC 2998) was 19.7 µM (inactive) and the GI50 (UACC-257) was 20.3 µM (inactive). The GI50 (MCF7) was 24.6 µM (inactive), the GI50 (EKVX) was 22.4 µM (inactive) and the GI50 (MDA-N) was 20.6 µM (inactive). For the same molecule, the GI50 (PC-3) was 19.5 µM (inactive), the GI50 (HCT-116) was 14.5 µM (inactive) and the GI50 (Malme-3M) was 14.8 µM (inactive). For the same molecule, the GI50 (DU-145) was 32.7 µM (inactive), the GI50 (TK-10) was 22.4 µM (inactive) and the GI50 (786-0) was 21.5 µM (inactive). The GI50 (SK-MEL-5) was 16.2 µM (inactive), the GI50 (RXF 393) was 13.1 µM (inactive) and the GI50 (OVCAR-3) was 16.5 µM (inactive). The GI50 (SF-295) was 22.6 µM (inactive), the GI50 (OVCAR-5) was 39.8 µM (inactive) and the GI50 (MDA-MB-231) was 16.9 µM (inactive). For the same molecule, the GI50 (UO-31) was 21.9 µM (inactive), the GI50 (A498) was 18.2 µM (inactive) and the GI50 (T47D) was 8.18 µM (inactive). The GI50 (M14) was 51.2 µM (inactive), the GI50 (COLO 205) was 15.9 µM (inactive) and the GI50 (SN12C) was 22.6 µM (inactive). For the same molecule, the GI50 (SK-MEL-28) was 23.9 µM (inactive), the GI50 (NCI-H460) was 17.7 µM (inactive) and the GI50 (SNB-75) was 14.1 µM (inactive). For the same molecule, the GI50 (SK-OV-3) was 24.5 µM (inactive), the GI50 (NCI/ADR-RES) was 23.8 µM (inactive) and the GI50 (SK-MEL-2) was 18.7 µM (inactive). For the same molecule, the GI50 (HOP-62) was 28.9 µM (inactive).
